Reference: patent publication US12172988B2, “Anticancer and antifungal splice modulators” (priority 2021, dated 2024)

System: PLK-1
Experiment: qPCR splicing analysis, PLK-1 exon skipping / RNA expression
Type: cell-based, human
Conditions: for PLK-1 RNA expression: HCT116, 24 h, 100, 250, 500 nM
Experimental: HCT116 tumor cells were treated with each analogue at 20 times the G150 value (Table 12) for 4 hours and then cellular RNA was isolated and purified for qPCR. Primers were designed to evaluate intron retention or exon skipping, direct responses to splice modulator treatment. Genes evaluated included those involved in splicing regulation (SF3A1, SF3A3, SF3B1, SF3B2), apoptosis (MCL-1L), protein folding (DNAJB1), and cell cycle regulation (AURKA, PLK-1) relative to the unspliced control GAPDH. For alternative splicing regulator (SF2), primers were designed to evaluate gene expression, which changes in response splice modulator treatment for SF2 relative to the unspliced control GAPDH. (−) denotes untreated cells.
Next, we turned our efforts to explore the ability of these analogues to modulate splicing. […] We treated cells for 4 h so that we could evaluate early changes in splicing activity, and then cellular RNA was isolated and purified for analyses by qPCR (FIG. 14). Most importantly, none of the concentrations tested led to significant changes in cell viability, ensuring that changes in gene expression were not due to cell death.
For these studies, we evaluated the expression of genes involved in splicing regulation (SF3A1, SF3A3, SF3B1, SF3B2), apoptosis (MCL-1L), protein folding (DNAJB1), and cell cycle regulation (AURKA, PLK-1) relative to the unspliced control GAPDH. Primers were designed to evaluate intron retention or exon skipping, direct responses to splice modulator treatment. The master splicing regulator alternative splicing factor (SF2) was also evaluated, with the primers for this gene designed to evaluate overall gene expression, which changes in response to splice modulator treatment.
From this 4 h study (FIG. 14), a small set of analogs (1, 1b, 1g, 1d, 1e, 1i and 1j) were selected to evaluate if effects on splicing when presented for a longer 24 h period. […] Using identical procedures as that used for 4 h, HCT116 cells were treated with three concentrations (100 nM, 250 nM and 500 nM) of each analog for 24 h. Multiple concentrations were used as a means to check further validate the use of the GI50 concentration in our prior study (FIG. 14). As before, none of the concentrations tested led to significant changes in cell viability over the 24-hour time window, ensuring that changes in gene expression were not due to cell death.
Cells were treated with 1 or 1a-1j in media (McCoy's 5a (Life Technologies) supplemented with 10% FBS, 2 mM L-glutamine, and 100 U mL^−1 of penicillin and 100 μg mL^−1 of streptomycin 0.5% DMSO) for 4 h or 24 h. Untreated cells were considered were used as negative control. Total RNA was isolated using mirVana miRNA isolation kit (Life Technologies). A 1 μg sample of RNA was subjected to DNAseI from a TURBO DNA free kit (Life Technologies). […] The amount of unspliced RNA for different genes was determined using Power SYBR Green PCR master mix (Applied Biosystems) by qPCR using specific primers for each gene. qPCR using 2.5 μM of each primer was performed on 5 ng of the obtained cDNA. qPCR conditions were as follows: 95° C. for 10 min for one cycle, then 95° C. for 10 min for one cycle, then 95° C. for 30 s, 55° C. for 60 s, 72° C. for 60 s, for 40 cycles using the MXPro. Quantification cycle (Cq) values were identified for each sample, and then RNA levels were calculated using 2-ΔΔCT method. […] Namely, all genes explored in this study were evaluated from the same cell cultures. […]

Structure (SMILES) | PLK-1 RNA expression | effect on exon 3 inclusion in PLK-1 (HCT116, 4 h, 20 times GI50, qPCR)
CC[C@H](OC)[C@@H](C)[C@H]1O[C@@H]1[C@@H](O)[C@H](C)/C=C/C=C(\C)[C@H]1OC(=O)C[C@H](O)CC[C@@](C)(O)[C@@H](OC(C)=O)/C=C/[C@@H]1C [Analog 1d, 17S-FD-895] | decreased effect at reducing | 
CC[C@H](OC)[C@@H](C)[C@H]1O[C@@H]1[C@@H](O)[C@H](C)/C=C/C=C(\C)[C@H]1OC(=O)C[C@@H](O)CC[C@@](C)(O)[C@@H](OC(C)=O)/C=C/[C@@H]1C [Analog 1g, 3S,17S-FD-895] | reduced PLK-1 RNA expression | most potent effect
CC[C@H](OC)[C@@H](C)[C@@H]1O[C@H]1[C@@H](O)[C@H](C)/C=C/C=C(\C)[C@H]1OC(=O)C[C@H](O)CC[C@@](C)(O)[C@@H](OC(C)=O)/C=C/[C@@H]1C [Analog 1i, 17S,18S,19S-FD-895] | increased the RNA expression relative to negative controls | 
